Here are results for seven molecules from patent publication US20260092114A1, “TREATMENT OF LUNG CANCER USING A COMBINATION OF AN ANTI-PD-1 ANTIBODY AND ANOTHER ANTI-CANCER AGENT” (Bristol-Myers Squibb Company, priority 2016, published 2026).

Where two headings read alike, the source gives them in different places.

In data set [1] the test system is metastatic squamous cell NSCLC. The note with it: cited from earlier work.
The next data set relates to NSCLC. To be noted: cited from earlier work; for median OS with maintenance therapy: non-squamous NSCLC patients, maintenance after platinum doublet.
Data set [2] can be described thus: CA184022 study of ipilimumab. The data set is classed as in vivo, human. Here is the method: Similarly, ipilimumab at 10 mg/kg has been safely administered over a 90 minute duration. In the CA184022 study, where ipilimumab was administered up to a dose of 10 mg/kg, on-study drug related hypersensitivity events (Grade 1-2) were reported in 1 (1.4%) subject in the 0.3 mg/kg and in 2 (2.8%) subjects in the 10 mg/kg group. […] Ipilimumab 10 mg/kg monotherapy has also been safely administered as 90 minute infusion in large phase 3 studies in prostate cancer (CA184043) and as adjuvant therapy for stage 3 melanoma (CA184029), with infusion reactions occurring in subjects. Administering 1 mg/kg of ipilimumab represents one-tenth of the 10 mg/kg dose.

The next data set concerns the target PD-1 (Homo sapiens, UniProt Q15116). Set-up: endogenous in cells. To be noted: across all doses 0.3 mg/kg to 10 mg/kg, 15 subjects; cited from earlier work.
In data set [3] the test system is chemotherapy-naive advanced NSCLC. Kind of data set: CA209012 Phase 1 study, nivolumab monotherapy and nivolumab plus ipilimumab, first line. It is filed as in vivo, human. The method, then:
Nivolumab monotherapy at 3 mg/kg every 2 weeks has been evaluated in one of several cohorts of chemotherapy-naive patients with advanced NSCLC in study CA209012. Results from this cohort (n=52), including 13 subjects with squamous histology and 39 subjects with non-squamous histology, show an overall response rate (ORR) of 23% and a disease control rate (DCR) of 50%. The PFS rate at 24 weeks is 41%, with a median PFS of 16 weeks. The OS rate at 12 months is 74%, and the median overall survival (OS) is 22.6 months. The majority of responses have been durable, with the median duration of response not reached. In contrast, the median OS for patients with non-squamous histology who receive platinum doublet chemotherapy is 13 months, and for those with squamous histology is 10 months. (Ellis et al. J Clin Oncol (2014) 32:1277-1280.)
The nivolumab plus ipilimumab combination has been also evaluated at several different doses and schedules as first line therapy in patients with advanced NSCLC in CA209012, an ongoing Phase 1 study of nivolumab as monotherapy and in combination with a variety of agents. Early cohorts evaluated 2 different dosing schedules: nivolumab 1 mg/kg+ipilimumab 3 mg/kg, every 3 weeks for four cycles as induction, followed by nivolumab 3 mg/kg every 2 weeks; or nivolumab 3 mg/kg+ipilimumab 1 mg/kg, every 3 weeks for four cycles as induction, followed by nivolumab 3 mg/kg every 2 weeks.
Thus, a third combination cohort was initiated: nivolumab 1 mg/kg+ipilimumab 1 mg/kg every 3 weeks (“1+1”) for 4 cycles as induction, followed by nivolumab 3 mg/kg every 2 weeks as maintenance. This dosing regimen has been much better tolerated with only 13% of subjects experiencing treatment-related AEs leading to discontinuation. […] The ORR is 16%, and the DCR is 58%. The PFS rate at 24 weeks is 55% with a median PFS of 46.1 weeks. The OS rate at 12 months is 63%, and the median OS is not reached. Activity has been observed in patients with both PD-L1 positive (PD-L1+) and PD-L1 negative (PD-L1−) tumors. […]
Analyses based on archival specimens for subjects in CA209012 have shown that subjects with both PD-L1+(IHC greater than or equal to 5%) and PD-L1 tumors may benefit from treatment with nivolumab. […] However, the disease control rate (DCR, CR+PR+SD) was 54% for those with PD-L1+ tumors and 50% for those with PD-L1− tumors. […] Again there was less of a difference in the DCR between the 2 groups: 53% for those with PD-L1+ tumors and 51% for those with PD-L1− tumors. For subjects receiving nivolumab monotherapy, the PFS rate at 24 weeks was 40% and 45% for patients with PD-L1+ and PD-L1− tumors respectively; the median OS was 19.1 months in subjects with PD-L1+ tumors and not reached in subjects with PD-L1− tumors. For subjects receiving nivolumab plus ipilimumab, the median PFS was 21.7 weeks and 12.4 weeks in PD-L1+ and PD-L1− tumors respectively; the median OS was 21.5 months in subjects with PD-L1+ tumors and 19.4 months in subjects with PD-L1− tumors. […]

The test system of another data set is previously treated NSCLC. The note with it: cited from earlier work.
Data set [4] is described as follows: nivolumab monotherapy tolerability across clinical studies. It is filed as in vivo.
In data set [5] the test system is second line or later NSCLC. The note with it: 3 mg/kg dose, cited from earlier work.
The test system of data set [6] is metastatic squamous cell NSCLC. To be noted: CA209063, 117 patients; cited from earlier work.
Data set [7] deals with CMV specific memory T cells. In words: CMV re-stimulation assay with human PBMC. The data set is classed as cell-based. To be noted: dose-dependent, versus isotype-matched control. The text has this: (Topalian S L et al. N Eng J Med 2012; 366: 2443-54.)
The nature of data set [8]: nivolumab pharmacokinetics, population pharmacokinetic (PPK) analysis. It is filed as in vivo, human. To be noted: for Cavgss Geo. Mean / Cmaxss Geo. Mean / Cminss Geo. Mean: geometric mean (cv %). The method, then: Nivolumab monotherapy has been studied in NSCLC patient population in studies CA209003, CA209063, CA209017, and CA209057 with body weight normalized dosing (mg/kg). Nivolumab pharmacokinetics (PK) and exposures of subjects in these studies have been characterized by population pharmacokinetic (PPK) analysis of data collected these studies, together with PK data from several phase 1, 2, and 3 clinical studies of nivolumab monotherapy in solid tumors. Nivolumab PK was determined to be linear, with dose proportional exposures over a dose range of 0.1 to 10 mg/kg. […] Conversely, given the relationship between nivolumab PK and body weight, a flat dose is expected to lead to lower exposures in heavier patients, relative to the exposures in lighter patients.
Table 3 presents summary statistics of the estimated nivolumab steady-state trough, peak and time-averaged concentration (Cminss, Cmaxss, and Cavgss, respectively) in NSCLC subjects receiving 3 mg/kg, together with corresponding statistics of exposures predicted for a flat nivolumab dose of 240 mg. It should be noted that a dose of 240 mg nivolumab is identical to a dose of 3 mg/kg for subjects weighing 80 kg, which is the approximate median body weight of NSCLC subjects in the 3 phase 2 and 3 clinical studies of nivolumab monotherapy in NSCLC patients (CA209017, CA209057, and CA209063).

Where [9] appears, read: monotherapy 3 mg/kg every 2 weeks, n=52.
The mark [10] stands for this setting: dose 3 (mg/kg), NSCLC subjects, estimated.

Chain of PD-1 (Q15116 25-288): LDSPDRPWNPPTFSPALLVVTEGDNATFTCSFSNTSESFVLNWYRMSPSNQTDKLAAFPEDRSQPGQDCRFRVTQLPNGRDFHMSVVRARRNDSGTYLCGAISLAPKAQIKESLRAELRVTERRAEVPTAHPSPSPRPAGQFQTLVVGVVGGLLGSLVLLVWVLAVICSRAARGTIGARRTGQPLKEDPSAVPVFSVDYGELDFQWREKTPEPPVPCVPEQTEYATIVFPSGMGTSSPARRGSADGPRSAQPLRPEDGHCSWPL

As to `CC(=O)O[C@@]12CO[C@@H]1C[C@H](O)[C@@]1(C)C(=O)[C@H](O)C3=C(C)[C@@H](OC(=O)[C@H](O)[C@@H](NC(=O)OC(C)(C)C)c4ccccc4)C[C@@](O)([C@@H](OC(=O)c4ccccc4)[C@H]21)C3(C)C` [docetaxel, reference compound], in data set [1] (CA209017), the “median overall survival (OS)” value was 6 months, the “patients with a Grade 3-5 treatment-related event” value was “Fifty-seven” and the “treatment-related deaths (grade 5 event)” value is recorded as 3. Moreover, in the data set with NSCLC (second-line), the “historical ORR” value is 8-10% and the “historical median PFS” value was “approximately 3 months”.
Take `Nc1nc2[nH]cc(CCc3ccc(C(=O)N[C@@H](CCC(=O)O)C(=O)O)cc3)c2c(=O)[nH]1` [pemetrexed]: the “median OS with maintenance therapy” value in the data set on NSCLC was about 13.9 month.
For the molecule “bevacizumab: monoclonal antibody that blocks vascular endothelial growth factor A (VEGF-A)”, the “median OS with maintenance therapy” value in the data set with NSCLC is given as about 13.9 month.
Consider gemcitabine/cisplatin, for which, in the data set with NSCLC (human, in vivo), the “alopecia, all grades” value was 21%; the “fatigue, Grade 3/4” value is reported as 5%; the “febrile neutropenia, Grade 3/4” value is given as 4%; the “rate of Grade 3/4 anemia” value is 10%. For the same molecule, in the data set on NSCLC (human, in vivo), the “rate of Grade 3/4 neutropenia” value is 27%; the “rate of Grade 3/4 thrombocytopenia” value is on record as 13%; the “vomiting, Grade 3/4” value was 6%.
For the molecule “ipilimumab: fully human, IgG1 monoclonal antibody that blocks the binding of CTLA-4 to its B7 ligands”, the “drug related hypersensitivity events (Grade 1-2)” value in data set [2] (0.3 mg/kg group) was determined as 1.4%; in data set [2] (10 mg/kg group), 2.8%. For the same molecule, the drug-related hypersensitivity events entry in data set [2] (3 mg/kg group) is reported as “no drug-related hypersensitivity events”. Moreover, the “Grade 3-4 drug-related hypersensitivity events” value in data set [2] (across the 3 treatment groups) is “no Grade 3-4 drug-related hypersensitivity events”.
On to nivolumab, for which, in data set [1] (CA209017), the “HR for overall survival vs docetaxel” value is listed as 0.59, the “median overall survival (OS)” value is 9.6 months and the “treatment-related deaths (grade 5 event)” value is recorded as “none”. Further, the “patients with a Grade 3-5 treatment-related event” value in data set [1] (in vivo) is given as 6.9%. Besides, at PD-1, the “mean PD-1 occupancy rate” value is recorded as 85% and the mean plateau occupancy is 72%. Further, in data set [3] (PD-L1+ tumors), the “PFS rate at 24 weeks” value stood at 40%; the “disease control rate (DCR, CR+PR+SD)” value was determined as 54%; the “median OS” value was 19.1 months. Further, in data set [3] (PD-L1+ tumors (IHC >= 5%)), the “overall response rate (ORR)” value is listed as 31%. In data set [3] (PD-L1− tumors), the “PFS rate at 24 weeks” value is reported as 45%; the “disease control rate (DCR, CR+PR+SD)” value came to 50%; the “median OS” value is on record as “not reached”; the “overall response rate (ORR)” value came to 15%. For the same molecule, in data set [3] (setting [9]), the “OS rate at 12 months” value was 74%, the “PFS rate at 24 weeks” value is 41%, the “disease control rate (DCR)” value is 50% and the “median PFS” value is listed as 16 weeks. In data set [3] (setting [9]), the “median overall survival (OS)” value is 22.6 months and the “overall response rate (ORR)” value was determined as 23%. In addition, in the data set on previously treated NSCLC, the objective response rates was about 25% and the “progression-free survival (PFS) rate at 24 weeks” value is on record as about 45%. Moreover, in data set [4] (Japanese subjects), the safety and tolerability result is “safe and well tolerated”. Moreover, the “dose achieved without reaching the maximum tolerated dose (MTD)” value in [4] (monotherapy, every two weeks) is on record as over 10 mg/kg. In addition, in data set [4] (up to a dose level of 10 mg/kg), the safety and tolerability entry is “safe and well tolerated”. In [5] (non-squamous), the “24-week PFS rate” value is 42% and the “objective response rate (ORR)” value is recorded as 26%. Besides, in data set [5] (squamous), the “24-week PFS rate” value is 45% and the “objective response rate (ORR)” value is on record as 22%. Besides, in data set [6], the “overall response rate (ORR)” value is listed as 15%. The “IFN-7 secretion from CMV specific memory T cells” value in [7] is “augmented IFN-7 secretion”. Moreover, in data set [8] (240 mg flat vs 3 mg/kg), the “coefficient of variation (cv %) of exposure greater than that of 3 mg/kg dosing” value is under 10%; the “geometric mean Cminss, Cmaxss and Cavgss with flat dosing higher than with 3 mg/kg” value is on record as under 15%. In [8] (comparison of PK parameters), the “PK in global and Japanese subjects” value is “similar”. Besides, in [8] (setting [10]), the “Cavgss Geo. Mean” value is 73.3 (35.6), the “Cmaxss Geo. Mean” value is recorded as 118.9 (31.8) and the “Cminss Geo. Mean” value was 54.7 (41.9). For the same molecule, the PK linearity entry in data set [8] (dose range of 0.1 to 10 mg/kg, dose proportional exposures) is recorded as “linear”. For the same molecule, in data set [8] (flat dose 240 (mg), predicted), the “Cavgss Geo. Mean” value was 82.4 (38.2), the “Cmaxss Geo. Mean” value is on record as 133.7 (35.0) and the “Cminss Geo. Mean” value is recorded as 61.5 (44.6). Moreover, the half-life entry in [8] (in vivo) is “up to 25 days”.
paclitaxel/carboplatin: in the data set on NSCLC (human, in vivo), the “arthralgia, Grade 3/4” value is 6%; the “fatigue, Grade 3/4” value was 5%; the “febrile neutropenia, Grade 3/4” value is on record as 3%; the “neuropathy, Grade 2/3” value is listed as 18%.
